Measured values: patent US20120214843A1, “Combination Treatment of Hydroxpyridonate Actinide/Lanthanide Decorporation Agents” (priority 2009, published 2012)

What was measured:
[1] = Actinide decorporation in mice after iv 233U(VI) injection, single or combined HOPO ligands; assay type: in vivo, Swiss-Weber mice
Procedure: (§1) Ligand Combination. […] Tetradentate 5-LIO(Me-3,2-HOPO), HOPO (2), is structurally suitable for chelating Np(V) and U(VI). Treatment is likely to be delayed in human contamination with dispersed radionuclides. Those conditions were approached, using mice, by ligand injection ip at 24 h or oral administration at 1 or 24 h after an iv actinide injection. Dosages of (1) and (2) were, respectively, 30 and 100 μmolkg^−1 ip and 100 and 200 μmolkg^−1 oral. Because mixtures of radionuclides may be released, (1) and (2) were combined to take advantage of their differing efficacies for the actinides. Dosages of combined (1) and (2) were, respectively, 30 plus […] injected ip and […] oral. Actinides in all mouse tissues and excreta were determined using published methods.
(§2) Tetradentate 5-LIO(Me-3,2-HOPO), HOPO (2), is structurally suitable for chelating Np(V) and U(VI). Treatment is likely to be delayed in human contamination with dispersed radionuclides. Those conditions were approached, using mice, by ligand injection ip at 24 h or oral administration at 1 or 24 h after an iv actinide injection. Dosages of (1) and (2) were, respectively, 30 and 100 μmolkg-1 ip and 100 and 200 μmolkg-1 oral. Because mixtures of radionuclides may be released, (1) and (2) were combined to take advantage of their differing efficacies for the actinides. Dosages of combined (1) and (2) were, respectively, 30 plus 100 μmolkg-1 injected ip and 100 and 200 μmolkg-1 oral. Actinides in all mouse tissues and excreta were determined using published methods.
(§3) Objective: to assay the efficacy of the two ligands at promoting radionuclide excretion with prompt or delayed administration, as single or combined treatments, and to identify target organs and excretion pathways. The test system used Swiss-Weber mice (˜35 g). Actinide loading involves intravenous injection of An-citrate complex at t0. Samples of later taken of the whole skeleton, liver, kidneys, bulk soft tissues, urine, and feces (Σ=100%). (See Table 1.)

[2] = Actinide decorporation in mice after iv 237Np(V) injection, single or combined HOPO ligands; assay type: in vivo, Swiss-Weber mice
Procedure: as §1, §2, §3

[3] = In vivo actinide chelation and removal compared with CaNa3-DTPA; design: species or system mice
Text: (§4) In vivo Efficacy. […] For example, the efficiency of 3,4,3-LI-1,2-HOPO for clearing circulating Pu from mouse tissues ranges from 100 times (skeleton) to 240 times (soft tissues) that of CaNa3-DTPA in five different protocols. In addition, the optimal activity dose of 3,4,3-LI-1,2-HOPO for removing newly deposited Pu from mice is 2.5% of the dose of CaNa3-DTPA used clinically. The tetradentate 5-LIO-Me-3,2-HOPO has potential therapeutic value for Pu, U, Am and Np, and its efficiency for clearing circulating Pu from mouse tissues ranges from 5 times (skeleton) to 15 times (liver) that of CaNa3-DTPA.
(§5) Oral Activity. Both compounds are orally active actinide chelators: when administered orally to mice or beagles after a Pu injection, 3,4,3-LI-1,2-HOPO and 5-LIO-Me-3,2-HOPO can remove up to 80% and 60%, respectively, of the injected Pu.

[4] = Clearing Pu from mouse tissues relative to CaNa3-DTPA; assay type: in vivo
Text: as §4

[5] = Oral removal of injected Pu; assay type: in vivo; settings: administered orally to mice or beagles after a Pu injection
Text: as §5

[6] = Pharmacokinetic studies using 14C-labeled ligands; assay type: in vivo
[7] = Actinide decorporation in mice after iv 241Am(III) injection, single or combined HOPO ligands; assay type: in vivo, Swiss-Weber mice; settings: ligand injected ip at 24 h
Procedure: as §1
(§6) Tetradentate 5-LIO(Me-3,2-HOPO), HOPO (2), is structurally suitable for chelating Np(V) and U(VI). Treatment is likely to be delayed in human contamination with dispersed radionuclides. Those conditions were approached, using mice, by ligand injection ip at 24 h or oral administration at 1 or 24 h after an iv actinide injection. Dosages of (1) and (2) were, respectively, 30 and 100 μmolkg-1 ip and 100 and 200 μmolkg-1 oral. […] Actinides in all mouse tissues and excreta were determined using published methods. […]

[8] = Actinide decorporation in mice, all actinides and protocols, comparison of treatments; design: species or system Swiss-Weber mice; settings: mouse
Procedure: as §1, §6

[9] = Actinide decorporation in mice after iv 238Pu(IV) injection, single or combined HOPO ligands; assay type: in vivo, Swiss-Weber mice; settings: ligand injected ip at 24 h
Procedure: as §1, §6

In the case of `Cn1ccc(C(=O)NCCOCCNC(=O)c2ccn(C)c(=O)c2O)c(O)c1=O` [5-LIO(Me-3,2-HOPO)], the “U(VI) excretion” value ([1]; ligand given orally at 1 h) is reported as “about 115 % control”, the “kidney U(VI)” value ([1]; ligand given orally at 1 h) is reported as 50 % control and the “U(VI) excretion” value ([1]; ligand injected ip at 24 h) is reported as “about 3 times control”. The “kidney U(VI)” value ([1]; ligand injected ip at 24 h) was 45 % control, the “kidney U(VI)” value ([1]; oral treatment at 24 h) was 70 % control and the “Np(V) excretion” value ([2]; ligand given orally at 1 h) was “about 115 % control”. The “liver Np(V)” value ([2]; ligand given orally at 1 h) was 25 % control, the “Np(V) excretion” value ([2]; ligand injected ip at 24 h) was “about 3 times control” and the “liver Np(V)” value ([2]; ligand injected ip at 24 h) was 30 % control. The “liver Np(V)” value ([2]; oral treatment at 24 h) was 50 % control, the “removing newly deposited Pu, Np, Am and U from mice, compared with CaNa3-DTPA” value [3] was “significantly more effective” and the “efficiency for clearing circulating Pu from mouse tissues, liver” value ([4]; liver) was 15 times that of CaNa3-DTPA. The “efficiency for clearing circulating Pu from mouse tissues, skeleton” value [4] was 5 times that of CaNa3-DTPA, the “injected Pu removed” value [5] was no more than 60% and the “stability to metabolic degradation” value [6] was “stable to metabolic degradation”.
With `O=C(NCCCN(CCCCN(CCCNC(=O)c1cccc(=O)n1O)C(=O)c1cccc(=O)n1O)C(=O)c1cccc(=O)n1O)c1cccc(=O)n1O` [3,4,3-LI(1,2-HOPO)] the “reduction of liver and skeleton actinide, Am(III)” value [7] was “appreciable and significant reductions”, the “in vivo chelation of Pu(IV) and Am(III)” value [8] was “highly effective” and the “removing newly deposited Pu, Np, Am and U from mice, compared with CaNa3-DTPA” value [3] was “significantly more effective”. For the same compound, the “Pu, Np, Th, Am and Cf chelation in vivo” value ([3]; mouse, in vivo) was “highly effective”, the “optimal activity dose for removing newly deposited Pu from mice” value ([4]; mice) was 2.5 % of the dose of CaNa3-DTPA used clinically and the “efficiency for clearing circulating Pu from mouse tissues, skeleton” value [4] was 100 times that of CaNa3-DTPA. For the same compound, the “efficiency for clearing circulating Pu from mouse tissues, soft tissues” value ([4]; soft tissues, five different protocols) was 240 times that of CaNa3-DTPA, the “injected Pu removed” value [5] was “up to 80%” and the “stability to metabolic degradation” value [6] was “stable to metabolic degradation”. The “reduction of liver and skeleton actinide, Pu(IV)” value [9] was “appreciable and significant reductions”.
